Among the data in BindingDB's records for doi:10.1021/jm00069a011 (Boehringer Mannheim, 1993) are IC50 values, retold here.

In general, pIC50 refers to the IC50 on a negative log10 scale, so that one unit is a factor of ten. Low values mean a high IC50, high ones a low IC50.

pIC50: −log10 of the molar value.

The first assay addresses T1, Gag-Pol polyprotein [588-1027]/[588-1147] (Human immunodeficiency virus 1, UniProt P04585).
T1 construct: 588-1027; 588-1147
Briefly: HIV-1 RT Assay.
Details: not given
In turn, `O=C1c2ncccc2C2(c3ccccc3)SCCN12` (stereo not drawn) [2-phenyl-3-thia-6,9-diazatricyclo[6.4.0.0^{2,6}]dodeca-1(12),8,10-trien-7-one] showed a pIC50 of less than 4.00.
For the compound `O=C1c2cnccc2C2(c3ccccc3)SCCN12` (stereo not drawn) [2-phenyl-3-thia-6,10-diazatricyclo[6.4.0.0^{2,6}]dodeca-1(12),8,10-trien-7-one], the pIC50 was less than 4.00.
`O=C1c2ccccc2C2(c3ccccc3)Sc3ccccc3N12` (stereo not drawn) [9-phenyl-8-thia-1-azatetracyclo[7.7.0.0^{2,7}.0^{10,15}]hexadeca-2,4,6,10,12,14-hexaen-16-one] had a pIC50 of 4.40.
For the compound `O=C1c2ccccc2C2(c3ccncc3)SCCN12` (stereo not drawn) [9b-(pyridin-4-yl)-2H,3H,5H,9bH-isoindolo[1,2-b][1,3]thiazol-5-one], the pIC50 is less than 4.52.
On the same count and under the same terms, next, `O=C1c2ccccc2C2(c3ccccc3)NCCN12` (stereo not drawn) [9b-phenyl-1H,2H,3H,5H,9bH-imidazolidino[2,1-a]isoindol-5-one]: less than 4.00.
On the same count and under the same terms, the figure for `O=C1c2ccccc2C2(c3ccccc3)N1CCS2(=O)=O` (stereo not drawn) [9b-phenyl-2H,3H,5H,9bH-1,4000000-isoindolo[1,2-b][1,3]thiazole-1,1,5-trione] is less than 5.00.
`O=C1c2ccccc2C2(c3ccccc3)NCCCN12` (stereo not drawn) [10b-phenyl-1H,2H,3H,4H,6H,10bH-pyrimido[2,1-a]isoindol-6-one]: the negative logarithm of the IC50 (pIC50) was less than 5.00.
As for `O=C1c2c(ccc3ccccc23)C2(c3ccccc3)SCCN12` (stereo not drawn) [11-phenyl-12-thia-15-azatetracyclo[8.6.0.0^{2,7}.0^{11,15}]hexadeca-1,3,5,7,9-pentaen-16-one], the pIC50 was less than 4.00.
`C[C@@H]1CN2C(=O)c3ccccc3[C@@]2(c2ccccc2)O1` [(2R,9bR)-2-methyl-9b-phenyl-2H,3H,5H,9bH-isoindolo[1,2-b][1,3]oxazol-5-one] gave a negative-log IC50 (pIC50) of 4.42.
Still for that read-out and setting: next, `C[C@H]1CN2C(=O)c3ccccc3[C@@]2(c2ccccc2)O1` [(2S,9bR)-2-methyl-9b-phenyl-2H,3H,5H,9bH-isoindolo[1,2-b][1,3]oxazol-5-one]: less than 4.00.
On to `O=C(O)[C@H]1CSC2(c3ccccc3)c3ccccc3C(=O)N12` (stereo partly drawn) [(3S)-5-oxo-9b-phenyl-2H,3H,5H,9bH-isoindolo[1,2-b][1,3]thiazole-3-carboxylic acid], for which the negative-log IC50 (pIC50) is less than 4.00.

The same assay, now with this note: pH 7.7; 37 °C.
As to `O=C1c2ccccc2C2(c3ccc[nH]3)SCCN12` (stereo not drawn) [9b-(1H-pyrrol-2-yl)-2H,3H,5H,9bH-isoindolo[1,2-b][1,3]thiazol-5-one], the pIC50 was less than 4.00.
On the same count and under the same terms, the figure for `COc1ccc(C23SCCN2C(=O)c2ccccc23)cc1` (stereo not drawn) [9b-(4-methoxyphenyl)-2H,3H,5H,9bH-isoindolo[1,2-b][1,3]thiazol-5-one] is less than 4.52.
